The values that follow come from PMC6650409, “Modeling the binding of diverse ligands within the Ah receptor ligand binding domain” (Scientific Reports, 2019).

The target of one assay is T1, P291L AhR (Mus musculus, UniProt P30561, P291L).
T1 construct: made in house; host or cells: in vitro, Promega TNT Quick rabbit reticulocyte lysate
T1 sequence (P30561 10-848 P291L): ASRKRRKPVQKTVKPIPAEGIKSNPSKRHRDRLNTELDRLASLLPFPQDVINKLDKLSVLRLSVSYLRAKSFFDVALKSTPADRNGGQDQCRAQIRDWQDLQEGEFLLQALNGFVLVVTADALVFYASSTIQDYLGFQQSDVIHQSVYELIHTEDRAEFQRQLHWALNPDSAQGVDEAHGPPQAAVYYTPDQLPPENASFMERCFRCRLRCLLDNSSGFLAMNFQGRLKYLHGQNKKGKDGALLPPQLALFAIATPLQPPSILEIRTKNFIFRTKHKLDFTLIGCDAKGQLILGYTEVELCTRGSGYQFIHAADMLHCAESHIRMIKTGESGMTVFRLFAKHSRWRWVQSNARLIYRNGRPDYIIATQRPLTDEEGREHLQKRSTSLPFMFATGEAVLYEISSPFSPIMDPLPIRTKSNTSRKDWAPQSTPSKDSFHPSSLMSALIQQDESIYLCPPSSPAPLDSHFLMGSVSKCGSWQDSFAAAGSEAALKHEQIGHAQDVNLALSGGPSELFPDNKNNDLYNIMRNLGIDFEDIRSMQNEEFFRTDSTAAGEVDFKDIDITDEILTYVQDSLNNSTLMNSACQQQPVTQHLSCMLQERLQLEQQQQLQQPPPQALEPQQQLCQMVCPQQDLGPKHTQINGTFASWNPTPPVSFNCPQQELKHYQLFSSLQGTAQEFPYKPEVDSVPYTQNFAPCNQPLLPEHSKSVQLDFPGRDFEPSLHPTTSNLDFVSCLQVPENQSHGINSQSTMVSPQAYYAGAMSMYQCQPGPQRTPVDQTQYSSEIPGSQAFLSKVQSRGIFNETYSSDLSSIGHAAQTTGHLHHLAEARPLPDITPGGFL
Kind of assay: [3H]TCDD competitive ligand binding, P291L mutant AhR. The following applies: for change of relative binding affinity versus wild-type AhR: P291L substitution, in words. As to the method: (§1) The mouse AhR (mAhR) and ARNT (mARNT) expression plasmids, mβAhR/pcDNA3 and mβArnt/pcDNA3, have been previously described. Point mutations of mβAhR/pcDNA3 were carried out using the QuikChange Lightning Mutagenesis Kit (Agilent Technologies) and all constructs were verified by sequencing.
(§2) [^3H]TCDD specific binding to wild-type or mutant mAhRs synthesized in vitro using the Promega TNT Quick coupled transcription/translation rabbit reticulocyte lysate kit (Madison, WI) was carried out as previously described. [^3H]TCDD specific binding was determined by subtracting the amount of [^3H]TCDD bound to unprogrammed lysate (nonspecific binding) from the total amount of [^3H]TCDD binding to lysate containing in vitro expressed AhR. The amount of [^3H]TCDD specific binding remaining in the presence of the indicated competitor chemical was expressed as a percent of the total [^3H]TCDD specific binding. The relative binding affinity (IC50) of each chemical was determined from concentration-dependent competitive inhibition curves obtained using [^3H]TCDD and increasing concentrations of each test chemical and the mean IC50 value was determined using three-parameter non-linear regression.

In the next assay the target is T2, M334A mutant AhR (Mus musculus, UniProt P30561, M334A).
T2 construct: made in house; host or cells: in vitro, Promega TNT Quick rabbit reticulocyte lysate
T2 sequence (P30561 10-848 M334A): T1 sequence (P30561 10-848 P291L) with L282P, M325A
Kind of assay: [3H]TCDD competitive ligand binding, M334A mutant AhR. The following applies: for change of relative binding affinity versus wild-type AhR: M334A substitution, in words; for IC50: Table S6, AhR mutant M334A. The protocol: as §1, §2

[1] abbreviates: Table S6, AhR mutant P291L, read-out: IC50.

Substitutions are numbered along the chain they refer to. Where two headings read alike, the source gives them in different places.

In the case of `Clc1cc2oc3cc(Cl)c(Cl)cc3c2cc1Cl` [TCDF, 2,3,7,8-tetrachlorodibenzofuran], the half-inhibitory concentration (IC50) on P291L AhR (P291L AhR, read-out: relative affinity (IC50)) amounted to 0.04 nM; at P291L AhR (setting [1]), 0.0435 nM. For the same molecule, the “change of relative binding affinity versus wild-type AhR” value at P291L AhR is given as “dramatically enhanced”.

Regarding `Clc1ccc(-c2cc(Cl)c(Cl)c(Cl)c2)cc1Cl` [PCB126, 3,3′4,4′5-pentachlorobiphenyl], at M334A mutant AhR, the “change of relative binding affinity versus wild-type AhR” value is given as “significantly reduced” and the half-maximal inhibitory concentration (IC50) was determined as 74.1 nM.

For the molecule `c1ccc2c(c1)cc1ccc3cccc4ccc2c1c34` [BaP, Benzo(a)pyrene], the “change of relative binding affinity versus wild-type AhR” value at P291L AhR was “not statistically significant”. Moreover, the IC50 on P291L AhR (setting [1]) turned out to be 604 nM.

Take `c1ccc2c(c1)ccc1cc3c(ccc4ccccc43)cc12` [DBA, dibenz(a,h)anthracene]: at M334A mutant AhR, the “change of relative binding affinity versus wild-type AhR” value is listed as “no significant effect” and the IC50 was determined as 7.33 nM.

Turning to `Cc1ccc2cc3c(ccc4ccccc43)c3c2c1CC3` [3MC, 3-methylcholanthrene], on M334A mutant AhR, the “change of relative binding affinity versus wild-type AhR” value is “decreased” and the IC50 is 34.7 nM.

A word on the IC50: it is the concentration at which inhibition is half-maximal.
